Tests used:
Assay in all cases: relative viability (nuclei count vs DMSO), 5 days (fraction); higher = more cells survive
[1] = compound: C[C@]1(O)C[C@@H](c2nc(-c3ccc4ccc(-c5ccccc5)nc4c3)c3c(N)nccn32)C1 [Linsitinib] + CC(=O)c1c(C)c2cnc(Nc3ccc(N4CCNCC4)cn3)nc2n(C2CCCC2)c1=O [Palbociclib] (partner 0.5 µM)
Method in brief: (§1)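 Each reported value is a median over duplicate plates. It expresses relative viability: treated-well nuclei count divided by vehicle-well nuclei count. Lung cancer cell lines in 1536-well plates were dosed by pin tool a day after seeding, alone with one drug or with a fixed anchor-drug dose plus five library-drug doses (not always all listed) in √10 steps, and nuclei were counted after 5 days.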

[2] = compound: C[C@]1(O)C[C@@H](c2nc(-c3ccc4ccc(-c5ccccc5)nc4c3)c3c(N)nccn32)C1 [Linsitinib] + CS(=O)(=O)N1CCN(Cc2cc3nc(-c4cccc5[nH]ncc45)nc(N4CCOCC4)c3s2)CC1 [Pictilisib] (partner 1 µM)
Method in brief: as §1

[3] = compound: C[C@]1(O)C[C@@H](c2nc(-c3ccc4ccc(-c5ccccc5)nc4c3)c3c(N)nccn32)C1 [Linsitinib] + NC(=O)Nc1cc(-c2cccc(F)c2)sc1C(=O)N[C@H]1CCCNC1 [AZD7762] (partner 0.2 µM)
Method in brief: as §1

[4] = compound: Cc1ccc(C(=O)N(CCCN)[C@@H](c2nc3cc(Cl)ccc3c(=O)n2Cc2ccccc2)C(C)C)cc1 [Ispinesib] + Cc1cc(Nc2cc(N3CCN(C)CC3)nc(Sc3ccc(NC(=O)C4CC4)cc3)n2)n[nH]1 [Tozasertib] (partner 0.1 µM)
Method in brief: as §1

Cell Line	relative viability ([1]; first compound 0.01 µM)	relative viability ([1]; first compound 0.03162 µM)	relative viability ([1]; first compound 0.1 µM)	relative viability ([1]; first compound 0.3162 µM)	relative viability ([1]; first compound 1 µM)	relative viability ([2]; first compound 0.01 µM)	relative viability ([2]; first compound 0.03162 µM)	relative viability ([2]; first compound 0.1 µM)	relative viability ([2]; first compound 0.3162 µM)	relative viability ([2]; first compound 1 µM)	relative viability ([3]; first compound 0.01 µM)	relative viability ([3]; first compound 0.03162 µM)	relative viability ([3]; first compound 0.1 µM)	relative viability ([3]; first compound 0.3162 µM)	relative viability ([3]; first compound 1 µM)	relative viability ([4]; first compound 0.001 µM)	relative viability ([4]; first compound 0.003162 µM)	relative viability ([4]; first compound 0.01 µM)	relative viability ([4]; first compound 0.03162 µM)	relative viability ([4]; first compound 0.1 µM)
NCI-H1651	0.543	0.525	0.494	0.486	0.489	0.505	0.569	0.475	0.377	0.508	0.221	0.467	0.429	0.525	0.447	0.692	0.776	0.968	0.824	0.234
A549						0.514	0.442	0.344	0.242	0.273										
HCC-366	0.441	0.394	0.359	0.303	0.328	0.127	0.0857	0.0909		0.108	0.261	0.228	0.301	0.361	0.12	0.172	0.13	0.663	0.0791	0.0441
EKVX		0.408	0.39	0.288	0.316	0.464	0.39	0.43	0.502	0.375		0.662	0.717	0.707	0.631	0.417	0.386	0.424	0.373	0.223
NCI-H1993	0.646	0.668	0.484	0.686	0.456	0.831	0.832	0.843	0.643	0.896	0.734	0.773	0.623	0.509	0.513	0.54	0.509	0.574	0.519	0.588
NCI-H2342	0.677	0.524	0.521	0.531	0.54						0.405	0.544	0.526	0.454	0.414	0.492	0.502	0.544	0.554	0.43
NCI-H1703						0.29		0.216	0.28	0.234	0.158	0.142	0.112		0.12					
IA-LM						0.329	0.409	0.334	0.349	0.156										
NCI-H522	1.01	0.83	1.04	0.673	0.977						0.771	0.958	1.09	0.654	0.612	0.562	0.508	0.542	0.557	0.702
SW 900	0.506	0.544	0.534	0.476	0.505						0.921	0.64	0.629	0.727	0.368	0.502	0.595	0.606	0.409	0.293
SK-LU-1	0.436	0.303	0.394	0.391	0.384	0.54	0.548	0.706		0.592						0.393	0.335	0.31	0.288	0.289
NCI-H1563						0.665	0.668	0.647	0.657	0.545										
NCI-H1648	0.238	0.304	0.252	0.279	0.212						0.683	0.671	0.713	0.692	0.612	0.532	0.484	0.394	0.498	0.44
SW 1573	0.428	0.358	0.333	0.259	0.33	0.453	0.571	0.471	0.433	0.425						0.18	0.19	0.174	0.194	0.131
NCI-H2009	0.119	0.203	0.19	0.105	0.24	0.946	0.796	0.833	0.101	0.687						0.788	0.837	0.786	0.706	0.489
Calu-6						0.878	0.805	0.916	0.748	0.716										
SK-MES-1	0.325	0.297	0.323	0.296	0.324	0.357	0.377	0.32	0.293	0.339						0.983	1.03	0.949	0.217	0.215
NCI-H1299						0.864	0.794	0.766	0.796	0.648										
NCI-H2228	0.809	0.62	0.619	0.546	0.513	0.425	0.382	0.28	0.239	0.27						0.299	0.28	0.236	0.152	0.365
EBC-1						0.499	0.347	0.381	0.299	0.246										
COR-L23	0.278	0.3	0.249	0.198	0.226	0.769	0.924	0.652	0.393	0.341						0.26	0.231	0.204	0.178	0.152
NCI-H520	0.175	0.212	0.244		0.215	0.324	0.306	0.285		0.284						0.419	0.466	0.41	0.499	0.422
COR-L 105	0.38	0.403	0.437	0.373	0.358	0.454	0.434	0.387	0.301	0.25						0.378	0.358	0.365	0.343	0.329
NCI-H2023	0.4	0.245	0.37	0.256	0.26	0.233	0.18	0.172	0.0774	0.147						0.378	0.399	0.378	0.211	0.202

Source: the supplement of paper PMC10307832
